Results from patent US6194383A, “Lipopeptides from actinoplanes sp. with pharmacological action, process for their production and the use thereof” (Hoechst Aktiengesellschaft, priority 1993, dated 2001).

How the values were obtained:
Format in all cases: cell-based
relevant organisms = assay: agar dilution test, MIC, in vitro activity (AB spectrum); details: Muller-Hinton agar, 37° C., 24 hours
Experimental: (§1) The sensitivity of relevant organisms to the A 1437 lipopeptides is determined by an agar dilution test. The agar used is Muller-Hinton agar to which, in the case of S. pyogenes and the Enterococci, 10% horse blood is added. The antibiotic-containing plates are inoculated using a multichannel inoculator (5×10^4 cfu/inoculation site of a stationary culture of the particular strain). The MIC values (minimum inhibitory concentration) are read off at 37° C. The MIC is defined as the concentration of the antibiotic at which no visible growth of the organisms is detectable after incubation for 24 hours. The amphomycin used as control was obtained from Boehringer Mannheim (Germany). Amphomycin can be obtained as fine chemical therefrom.

Enterococcus faecium VR1 = assay: agar dilution test, MIC, vancomycin-resistant strains; details: Muller-Hinton agar with 10% horse blood, 37° C., 24 hours
Experimental: as §1

Enterococcus faecium VR2 = assay: as above; details: Muller-Hinton agar with 10% horse blood, 37° C., 24 hours
Experimental: as §1

Streptococcus pyogenes = assay: agar dilution test, MIC, vancomycin-resistant strains table; details: Muller-Hinton agar with 10% horse blood, 37° C., 24 hours
Experimental: as §1

[1] = 1st of 6 value columns, strain not given
[2] = 2nd of 6 value columns, strain head not printed
[3] = 3rd of 6 value columns, strain not given
[4] = 4th of 6 value columns, strain not given
[5] = 5th of 6 value columns, strain not given
[6] = 6th of 6 value columns, strain head not printed

Substance | MIC, in vitro activity (AB spectrum), concentration (relevant organisms; [1]) | MIC, in vitro activity (AB spectrum), concentration (relevant organisms; [2]) | MIC, in vitro activity (AB spectrum), concentration (relevant organisms; [3]) | MIC, in vitro activity (AB spectrum), concentration (relevant organisms; [4]) | MIC, in vitro activity (AB spectrum), concentration (relevant organisms; [5]) | MIC, in vitro activity (AB spectrum), concentration (relevant organisms; [6]) | MIC, in vitro activity (vancomycin-resistant strains), concentration (Enterococcus faecium VR1) | MIC, in vitro activity (vancomycin-resistant strains), concentration (Enterococcus faecium VR2) | MIC, in vitro activity (vancomycin-resistant strains), concentration (Streptococcus pyogenes)
aiC15 -fatty acid-Asp-Dab-Pip-MeAsp-Asp-Gly-Asp-Gly-Dab-Val-Pro [A 1437 G] | 0.098 µg/mL | 0.195 µg/mL | 0.049 µg/mL | 0.088 µg/mL | 0.025 µg/mL | 0.195 µg/mL | 0.25 µg/mL | 0.25 µg/mL | 0.125 µg/mL
ic13 -fatty acid-Asn-Dab-Pip-MeAsp-Asp-Gly-Asp-Gly-Dab-Val-Pro [A 1437 C] | 0.195 µg/mL | 0.781 µg/mL | 0.391 µg/mL | 3.13 µg/mL | 0.781 µg/mL | 3.13 µg/mL | 4 µg/mL | 4 µg/mL | 4 µg/mL
Amphomycin [reference compound] | 0.195 µg/mL | 0.781 µg/mL | 0.391 µg/mL | 1.56 µg/mL | 0.391 µg/mL | 1.56 µg/mL | 4 µg/mL | 4 µg/mL | 2 µg/mL
aiC13 -fatty acid-Asn-Dab-Pip-MeAsp-Asp-Gly-Asp-Gly-Dab-Val-Pro [A 1437 F] | 0.098 µg/mL | 0.391 µg/mL | 0.195 µg/mL | 1.56 µg/mL | 0.781 µg/mL | 1.56 µg/mL | 4 µg/mL | 4 µg/mL | 1 µg/mL
iC13 -fatty acid-Asp-Dab-Pip-MeAsp-Asp-Gly-Asp-Gly-Dab-Val-Pro [A 1437 A] | 0.391 µg/mL | 0.781 µg/mL | 0.391 µg/mL | 1.56 µg/mL | 0.391 µg/mL | 3.13 µg/mL | – | – | –
aiC15 -fatty acid-Asn-Dab-Pip-MeAsp-Asp-Gly-Asp-Gly-Dab-Val-Pro [A 1437 H] | 0.049 µg/mL | 0.098 µg/mL | 0.049 µg/mL | 0.195 µg/mL | 0.049 µg/mL | 0.195 µg/mL | 1 µg/mL | 1 µg/mL | 0.5 µg/mL
iC14 -fatty acid-Asp-Dab-Pip-MeAsp-Asp-Gly-Asp-Gly-Dab-Val-Pro [A 1437 B] | 0.098 µg/mL | 0.195 µg/mL | 0.098 µg/mL | 0.195 µg/mL | 0.049 µg/mL | 0.391 µg/mL | 1 µg/mL | 1 µg/mL | 0.5 µg/mL
iC14 -fatty acid-Asn-Dab-Pip-MeAsp-Asp-Gly-Asp-Gly-Dab-Val-Pro [A 1437 D] | 0.049 µg/mL | 0.195 µg/mL | 0.049 µg/mL | 0.781 µg/mL | 0.391 µg/mL | 0.781 µg/mL | 2 µg/mL | 2 µg/mL | 1 µg/mL
